This is an account of results in article PMC6838110 (Nature Communications, 2019).

Experiment [1] has as its system FaDu and A549 ATM KO cells. The experiment can be described thus: Live/Dead assay, AZD7648 monotherapy, ATM KO versus WT isogenic pairs. Format: cell-based, human. As to conditions: AZD7648 single agent. From the text:
(§1) by Live/Dead assay in A) UWB1.289 and UWB1.289 complemented with wild-type BRCA1 (UWB1.289 + BRCA1), DLD1 and DLD1 with the BRCA2 gene knocked out (DLD1 BRCA2 KO), and B) FaDu and A549 cells with the ATM gene knocked out (ATM KO) compared with their WT counterpart. Graphs represent percentage viable cells ± SD following 7 days’ treatment relative to DMSO vehicle-treated controls from one representative experiment of at least three independent experiments. Tables describe […]
(§2) and A549 ATM KO cells compared with their WT counterparts following 7 days’ treatment.
(§3) Mean pGI50 (–log [GI50]) ± SEM, geometric mean GI50, number of experimental repeats (n) and 95% confidence interval are described. C) Colony formation assay was performed on FaDu and A549 ATM KO and WT cells treated with increasing concentrations of olaparib. Graphs represent percentage surviving fraction of colonies ± SD following 10– 14 days’ treatment relative to DMSO vehicle-treated control from one representative experiment of three independent experiments. […] Mean pIC50
(§4) ± SEM, geometric mean IC50, number of experimental repeats (n) and 95% confidence […]
(§5) 8–14 days or with increasing concentrations of olaparib. Cell colonies were washed with […]
(§6) Mean surviving colonies were calculated from three technical replicates. […]
(§7) before survival fraction was calculated. […]
(§8) and quantified using the Acumen ® Cellista (TTP Labtech). […]

The test system of experiment [2] is NCI-H1299 cells. The experiment can be described thus: Colony formation assay with ionizing radiation. It is filed as cell-based, human. As to conditions: for DEF37 Mean / DEF37 n1 / DEF37 n2: NCI-H1299. How it is done:
(§9) page 32: […] Plates were then washed 2x with PBS, incubated with 20 µL of antibody solution containing […] incubated at RT for 2 hours. Plates were washed 3x with PBS before imaging on the CV7000 high-content imaging platform (Yokogawa). Following image acquisition, images were exported to the ColumbusTM image data storage and analysis system (Perkin Elmer). Optimized image algorithms were used to evaluate phenotypic response s using nuclear staining with Hoechst (cell cycle, micronuclei, nuclear fragmentation ), as well as to quantify the response of DNA damage response markers (foci numbers and total signal […] SDS-PAGE and Western blotting of samples Protein lysates were generated by scraping cells in radioimmunoprecipitation assay […] and protease and phosphatase inhibitor tablets (Roche) following compound treatments at indicated time points. Protein concentration was determined using the BCA protein assay kit (ThermoFisher). Proteins were separated by SDS -PAGE on NuPAGE® 4-12% […] membranes using the iBlot ® dry blotting system (ThermoFisher). Membranes were […] and incubated with primary antibody overnight at 4°C. Membranes were then washed with TBS-T and incubated with HRP-conjugated anti-rabbit or anti-mouse antibodies for 1 hour at RT. Proteins were detected by incubating membranes with SuperSignalTM Dura extended-duration substrate (ThermoFisher) and visualiz ed using the G:BOX ChemiGenius imaging system (Syngene). Band intensities were quantified using Syngene Genetools software. For analysis o f in vivo samples, a two-sided t-test was performed on logged data assuming unequal variance. A list of all antibodies used in this study can be found in Supplementary Table 5. Colony formation assay Cells were plated at low density into six-well plates in 3 mL medium (500 cells for A549, NCI-H1299 and FaDu WT, 4000 cells for FaDu ATM […]) and incubated overnight. Cell plating numbers were adjusted for higher IR doses to compensate for cell kill. […] Cell colonies were washed with […] acetic acid for >10 minutes. Excess stain was removed by washing with water. Surviving colonies (>50 cells) were counted using the GelCountTM colony counter (Oxford Optronix). Mean surviving colonies were calculated from three technical replicates. […] fraction. […] 33

The test system of experiment [3] is A549 cells. The experiment can be described thus: Colony formation assay with ionizing radiation. Format: cell-based, human. How it is done:
as §9

The subject of experiment [4] is BT474 breast cancer xenografts. The experiment can be described thus: Xenograft efficacy study with liposomal doxorubicin. Format: in vivo, mice. As to conditions: AZD7648 37.5 mg kg−1 bid × 28 days, single agent. How it is done: Immunocompromised SCID (C.B-17/IcrHan®Hsd-Prkdc^scid) or Hsd:Athymic Nude-Foxn1^nu female mice (Envigo) were used for tumour implantation. […] When dosed twice daily, the time between the morning and evening doses was 8 h. Targeted irradiation of 2 Gy was delivered over 2 min daily over the first 5 days of treatment. Liposomal doxorubicin (Doxoves) was diluted in physiological saline and intravenously dosed at 2.5 or 5 mg kg^−1 once per week. Olaparib was formulated in 10% DMSO/30% Kleptose and orally dosed at 100 mg kg^−1 once daily. […] Statistical significance was evaluated using a one-tailed t-test. All in vivo studies complied with all relevant ethical regulations for animal testing and research, followed AstraZeneca’s global bioethics policy and received ethical approval from the AstraZeneca ethical committee. HBCx-17 PDX study was carried out at XenTech, France in accordance with French regulatory legislation concerning the protection of laboratory animals. CTG-703, CTG-0828 and CTG-0149 PDX studies were carried out at Champions Oncology, Inc., USA in accordance to the guidelines of the Institutional Animal Care and Use Committee (IACUC) of Champions Oncology and the USA regulatory legislation. […]
Tumours were measured (length x width) by bilateral Vernier calliper measurements and tumour volume calculated using Mousetrap software. […]

Experiment [5] deals with UWB1.289 and DLD1 BRCA2 KO cells. The experiment can be described thus: Live/Dead assay, AZD7648 monotherapy, BRCA1/BRCA2 isogenic pairs. Format: cell-based. The following applies: 7 days treatment.
Excerpt: as §1, §2, §3, §4, §5, §6, §7, §8

Regarding `Cc1cc2ncnn2cc1Nc1ncc2c(n1)n(C1CCOCC1)c(=O)n2C` [AZD7648], in experiment [1], the “greater sensitivity of ATM KO cells compared with isogenic WT cells” value was above 10 fold. The “Mean DEF37” value in experiment [2] (H1299, AZD7648 1 μM + IR (Fig. 1e)) stood at 7.4; in experiment [3] (AZD7648 1 μM + IR (Fig. 1e)), 5.1. The “DEF37 Mean” value in experiment [2] (AZD7648 0.025 μM + IR) is 1.3; in experiment [2] (AZD7648 0.1 μM + IR) it was 2.5; in experiment [2] (AZD7648 1.21 μM + IR), 7.4; in experiment [3] (AZD7648 0.025 μM + IR), 1.2; in experiment [3] (AZD7648 0.1 μM + IR), 1.7; in experiment [3] (AZD7648 1.21 μM + IR), 5.1. Moreover, the “DEF37 n1” value in experiment [2] (AZD7648 0.025 μM + IR) came to 1.2; in experiment [2] (AZD7648 0.1 μM + IR), 2.9; in experiment [2] (AZD7648 1.21 μM + IR) it was 7.9; in experiment [3] (AZD7648 0.025 μM + IR) it was 1.3; in experiment [3] (AZD7648 0.1 μM + IR) it was 1.4; in experiment [3] (AZD7648 1.21 μM + IR), 3.2. Also, the “DEF37 n2” value in experiment [2] (AZD7648 0.025 μM + IR) is on record as 1.3; in experiment [2] (AZD7648 1.21 μM + IR) it was 7.0; in experiment [3] (AZD7648 0.025 μM + IR), 1.2; in experiment [3] (AZD7648 0.1 μM + IR) it was 1.9; in experiment [3] (AZD7648 1.21 μM + IR) it was 7.0. Further, the TGI (in general, how far tumour growth fell short of that in controls) in experiment [4] was 20%. Moreover, in experiment [5], the “effect of loss of BRCA1 or BRCA2 on sensitivity to monotherapy” value is on record as “did not sensitize”.
